Experimental data: patent publication US20230416258A1, “BENZ[…], AND PREPARATION METHOD THEREFOR AND USE THEREOF” (CHINA PHARMACEUTICAL UNIVERSITY, priority 2020, published 2023)
Like-named read-outs stand apart in the source and are kept apart here.

How the values were obtained:
[1] = target: voltage-gated potassium channel hERG (Homo sapiens (Human), UniProt Q12809); assay: Predictor hERG fluorescence polarization assay; format: binding
Description: In this experiment, IC50 was calculated by detecting the effect of compounds at 8 concentrations on the […]. The procedures were performed exactly as for Predictor™ hERG fluorescence polarization assay kit. Before measuring fluorescence polarization, the assay plate was covered to protect the reagents from light and evaporation, and after incubation at room temperature for 2-4 h, the sample plate was centrifuged to read the fluorescence polarization value, with the excitation light at 540 nm and the emission light at 573 nm.

hCMEC/D3 cells = assay: Rate of drug passing through in vitro blood-brain barrier (Transwell); format: in vitro ADME; settings: hCMEC/D3 monolayer, compound 0.1 mg/mL
How it was run: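 Confluent hCMEC/D3 monolayers grown 10 days on Transwell inserts (5.0 μm pores). Compound at 0.1 mg/mL added to the lower chamber; upper-chamber concentration measured after 5 min, with permeability expressed as upper/lower concentration ×100%.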

[2] = tested on: GABA-activated Cl− current (GABAA receptor) in HEK 293T cells; assay: Effect of drugs on GABA-activated current in cells by cell patch clamp; format: cell-based; settings: for Enhancement percentage Emax for 2 μM GABA current (within 3-30 μM): corresponding concentration 20 μM
How it was run: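 Whole-cell patch clamp of HEK 293T cells held at −60 mV; compound applied together with 2 μM GABA in extracellular buffer (140 mM NaCl, HEPES, pH 7.4). Enhancement of GABA-evoked Cl− current recorded in the same cell, reported as maximal enhancement (Emax) and corresponding concentration.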

SD rats [3] = assay: Test for drug-induced disappearance of righting reflex in rats; format: in vivo; settings: single rapid bolus via tail vein
How it was run: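 Male SD rats (200-280 g) were randomly grouped and given a single rapid bolus dose via the tail vein. Latency to loss of righting reflex and its duration were recorded.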

KM mice = assay: Test for drug-induced disappearance of righting reflex in mice; format: in vivo; settings: single rapid bolus via tail vein
How it was run: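 Latency to, and duration of, righting reflex loss were recorded after one fast tail-vein bolus. Animals: randomized female KM mice weighing 18–25 g.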

[4] = In vitro plasma half-life of drug; format: in vitro ADME, SD rats; settings: SD rat plasma, 37° C.; for half-life at 0.4 mg/mL: plasma (heparin sodium)
Description: Preparation of plasma: after the SD rats were fasted and kept with water for 12 h, blood was collected through orbital venous plexus. The freshly collected blood was added into a centrifuge tube containing heparin sodium and centrifuged at 5000 rpm for 10 min at 4° C. The supernatant was slowly pipetted and subpackaged. Finally, the collected SD rat plasma was sealed, marked, and stored at −20° C. for later use.
Preparation of target compound sample: the target compound was precisely weighed by an analytical balance and prepared into a stock solution at a concentration of 2 mg/mL (solvent: Vacetone:VTween 80:Vnormal saline=1:1:3) for later use.
Determination of in vitro half-life of target compound sample: 20 μL of test compound stock solution and 80 μL of rat plasma were mixed uniformly. Nine parallel ep tubes were taken, marked as corresponding test tubes of 0 min, 1 min, 2 min, 3 min, 5 min, 10 min, 15 min, 20 min, and 30 min, respectively, and placed in a water bath at 37° C. for incubation for 0 min, 1 min, 2 min, 3 min, 5 min, 10 min, 15 min, 20 min, and 30 min, respectively. 50 μL of mixed solution were taken from the corresponding ep tube at each time point, and […] of acetonitrile was added for precipitating protein. The mixture was vortexed for 10 min using a mixer and centrifuged at 12000 rpm for 15 min. Then, the supernatant was centrifuged at 12000 rpm for 10 min. The optimal detection method for the target compound in the MRM mode was determined using Intellistat software in UPLC-MS/MS, the peak area of the corresponding mass spectrum was integrated, and the plasma half-life of the compound was calculated.

SD rats [5] = assay: Induction of anesthesia in rats by continuous infusion of drug for 20 min; format: in vivo; settings: initial dose 20 mg/kg bolus, maintenance dose 0.2 (mg/kg)/min for 20 min, after infusion completed
Description: SD rats (male, 200-280 g) were randomly grouped and subjected to administration of an initial dose by rapid bolus via the tail vein, followed by a continuous infusion with a maintenance dose for 20 min.
After the infusion was completed, the duration of the righting reflex and the time from wake-up to recovery in rats were recorded.

[6] = read-out: Positive enhancement EC50 (μM) for 2 μM GABA-induced current, −60 mV

voltage-gated potassium channel hERG, sequence (Q12809 whole entry, looked up): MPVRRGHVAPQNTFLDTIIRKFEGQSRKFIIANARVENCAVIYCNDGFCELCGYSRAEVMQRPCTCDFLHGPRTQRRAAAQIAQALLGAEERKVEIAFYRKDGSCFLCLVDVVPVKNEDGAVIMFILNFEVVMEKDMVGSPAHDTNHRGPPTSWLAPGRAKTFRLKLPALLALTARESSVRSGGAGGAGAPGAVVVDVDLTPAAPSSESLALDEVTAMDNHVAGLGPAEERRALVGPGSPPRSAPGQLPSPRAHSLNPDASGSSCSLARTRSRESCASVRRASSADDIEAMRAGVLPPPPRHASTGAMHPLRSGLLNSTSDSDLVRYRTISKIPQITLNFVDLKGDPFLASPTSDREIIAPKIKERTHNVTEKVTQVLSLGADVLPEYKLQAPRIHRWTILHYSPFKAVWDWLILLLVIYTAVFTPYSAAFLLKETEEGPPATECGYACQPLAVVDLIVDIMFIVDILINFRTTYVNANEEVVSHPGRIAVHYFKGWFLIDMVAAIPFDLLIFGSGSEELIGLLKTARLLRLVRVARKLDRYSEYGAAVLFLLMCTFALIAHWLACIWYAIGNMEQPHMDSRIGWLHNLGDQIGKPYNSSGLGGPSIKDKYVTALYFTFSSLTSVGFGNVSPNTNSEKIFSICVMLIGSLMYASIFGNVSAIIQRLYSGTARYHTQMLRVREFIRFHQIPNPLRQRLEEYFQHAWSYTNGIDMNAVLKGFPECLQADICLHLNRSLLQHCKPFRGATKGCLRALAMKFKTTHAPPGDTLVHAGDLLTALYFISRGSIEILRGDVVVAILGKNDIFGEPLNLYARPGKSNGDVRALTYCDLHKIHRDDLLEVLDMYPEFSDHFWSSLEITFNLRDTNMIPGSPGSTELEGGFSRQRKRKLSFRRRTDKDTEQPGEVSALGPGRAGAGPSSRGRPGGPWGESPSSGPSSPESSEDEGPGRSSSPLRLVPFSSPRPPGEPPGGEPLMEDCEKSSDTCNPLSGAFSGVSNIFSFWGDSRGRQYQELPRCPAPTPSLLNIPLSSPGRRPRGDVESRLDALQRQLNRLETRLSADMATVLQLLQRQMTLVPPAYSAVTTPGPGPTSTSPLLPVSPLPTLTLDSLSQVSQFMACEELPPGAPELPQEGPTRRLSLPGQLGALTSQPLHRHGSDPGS

| SMILES | IC50 [1] [nM] | In vitro blood-brain barrier, compound permeability at 5 min (hCMEC/D3 cells) [%] | EC50 [2, 6] [µM] | Enhancement percentage Emax for 2 μM GABA current (within 3-30 μM) ([2]; −60 mV) | Latency (SD rats [3]) [min] | Duration (KM mice; 60 mg/kg) [min] | Latency (KM mice; 60 mg/kg) [min] | half-life at 0.4 mg/mL [4] [s] | Duration of anesthesia (SD rats [5]) [min] | Time from wake-up to recovery (SD rats [5]) [min] | EC50 ([2]; 2 μM GABA, −60 mV, read-out: Positive enhancement EC50 (μM) for 2 μM GABA-induced current) [µM] | Duration (SD rats [3]) [min] | Duration (KM mice; 30 mg/kg) [min] | Latency (KM mice; 30 mg/kg) [min] | In vitro plasma half-life [4] [s] | IC50 ([1]; hERG channel, fluorescence polarization, 8 concentrations, read-out: IC50) [nM] |
| --- | --- | --- | --- | --- | --- | --- | --- | --- | --- | --- | --- | --- | --- | --- | --- | --- |
| Cc1ncc2n1-c1ccc(Cl)cc1C(c1ccccc1F)=NC2 [Midazolam, reference compound] | 7090 | – | – | – | – | – | – | – | – | – | – | – | – | – | – | – |
| COC(=O)CC[C@@H]1N=C(c2ccccc2F)c2cc([N+](=O)[O-])ccc2-n2c(SCCCN(C)C)nnc21 [Compound 59, methyl (S)-3-(8-nitro-1-((3-(dimethylamino)propyl)thio)-6-(2-fluorophenyl)-4H-benzo[f][1,2,4]triazolo[4,3-a][1,4]diazepin-4-yl)propionate] | – | 75.7 | 0.79 | 252% (20 μM) | 0.22 | 9.62 | 0.37 | 15 | 4.89 | 31.3 | – | – | – | – | – | – |
| COC(=O)CC[C@@H]1N=C(c2ccccc2Cl)c2cc(Br)ccc2-n2c(SC(C)=O)nnc21 [Compound 39, methyl (S)-3-(8-bromo-6-(2-chlorophenyl)-1-(acetylthio)-4H-benzo[f][1,2,4]triazolo[4,3-a][1,4]diazepin-4-yl)propionate] | – | 82.6 | 0.88 | 272% (20 μM) | 0.38 | 9.67 | 0.19 | 25.8 | 7.86 | 11.2 | – | – | – | – | – | – |
| COC(=O)CC[C@H]1N=C(c2ccccc2Cl)c2cc(Cl)ccc2-n2c(SCCN3CCC(O)CC3)nnc21 [Compound 135, methyl (S)-3-(8-chloro-6-(2-chlorophenyl)-1-(2-((4-hydroxypiperidin-1-yl)ethyl)thio)-4H-benzo[f][1,2,4]triazolo[4,3-a][1,4]diazepin-4-yl)propionate] | – | 80.2 | – | 263% (20 μM) | 0.14 | – | – | – | 7.24 | 13.6 | 0.75 | 16.64 | 10.64 | 0.22 | 19.8 | 31900 |
| COC(=O)CC[C@@H]1N=C(c2ccccn2)c2cc(Br)ccc2-n2c(SCc3ccncc3)nnc21 [Compound 126, methyl (S)-3-(8-bromo-6-(pyridin-2-yl)-1-(((pyridin-4-yl)methyl)thio)-4H-benzo[f][1,2,4]triazolo[4,3-a][1,4]diazepin-4-yl)propionate] | 72500 | 85.6 | 0.45 | 306% (20 μM) | 0.26 | – | – | 24.6 | 9.52 | 20.5 | – | – | 5.05 | 0.16 | – | – |
| COC(=O)CC[C@@H]1N=C(c2ccccc2Cl)c2cc(Cl)ccc2-n2c(SCCN)nnc21 [Compound 35, methyl (S)-3-(8-chloro-6-(2-chlorophenyl)-1-((2-aminoethyl)thio)-4H-benzo[f][1,2,4]triazolo[4,3-a][1,4]diazepin-4-yl)propionate] | – | 84.6 | 0.36 | 318% (20 μM) | 0.25 | 40.26 | 0.18 | 12.6 | 51.3 | 33.8 | – | – | – | – | – | – |
| COC(=O)CC[C@@H]1N=C(c2ccccc2Cl)c2cc([N+](=O)[O-])ccc2-n2c(SCCN3CCOCC3)nnc21 [Compound 83, methyl (S)-3-(8-nitro-6-(2-chlorophenyl)-1-((2-morpholinoethyl)thio)-4H-benzo[f][1,2,4]triazolo[4,3-a][1,4]diazepin-4-yl)propionate] | – | 77.3 | 0.57 | 287% (20 μM) | 0.16 | 14.58 | 0.19 | 16.8 | 28.66 | 16.3 | – | – | 7.89 | 0.28 | – | – |
